According to publication PMC11870044, “Exploring the Antibacterial and Antiparasitic Activity of Phenylaminonaphthoquinones—Green Synthesis, Biological Evaluation and Computational Study” (International Journal of Molecular Sciences, 2024):
≈ marks a conversion by molar mass, not a printed value. Like-named read-outs stand apart in the source and are kept apart here.

Columns and labels:
P. falciparum 3D7 = tested on: P. falciparum 3D7; parameters: method as in PMID 33333397; conditions: literature compounds of Figure 2; read-out: IC50 against the 3D7 strain; cited from earlier work
[1] = tested on: Proteus mirabilis (ATCC 12453); test: Minimum inhibitory concentration, broth dilution method; assay type: cell-based
Method: (§1) The microorganisms used were Staphylococcus aureus (ATCC 25923), Proteus mirabilis (ATCC 12453) Enterococcus faecalis (ATCC 29212), Escherichia coli (ATCC 25922), Salmonella typhimurium (ATCC 19585), and Klebsiella pneumoniae (ATCC 700603).
(§2) The antimicrobial activity of the phenylaminonaphthoquinones 1–12 was determined by the broth dilution method. The following concentrations were tested: 200, 100, 50, 25, and 12.5 μg/mL. After incubation, the microbial growth was examined. The results are expressed in minimum inhibitory concentration (MIC), the lowest concentration of phenylaminonaphthoquinones with no visible growth. The bactericidal/bacteriostatic activity was determined by sub-cultivation of the samples in normal culture media at appropriate temperatures and incubation times. The MIC of each compound was performed in triplicate. The compounds 1–12 were dissolved in DMSO. Cefazolin and cefotaxime were used as positive controls at the same compound concentrations.

[2] = tested on: Escherichia coli (ATCC 25922); test: as above; assay type: cell-based
Method: as §1, §2

[3] = tested on: Enterococcus faecalis (ATCC 29212); test: as above; assay type: cell-based
Method: as §1, §2

[4] = tested on: Klebsiella pneumoniae (ATCC 700603); test: as above; assay type: cell-based
Method: as §1, §2

[5] = tested on: Salmonella typhimurium (ATCC 19585); test: as above; assay type: cell-based; conditions: Salmonella enterica, read-out: MIC S. typhimurium G−
Method: as §1, §2

[6] = tested on: Staphylococcus aureus (ATCC 25923); test: as above; assay type: cell-based; conditions: for MIC: Staphylococcus aureus; for MIC S. aureus G+: broth dilution
Method: as §1, §2

[7] = Experimental log P, shake-flask method n-octanol/water; assay type: physicochemical; conditions: 25 ± 1 °C
Method: The mixture was then allowed to stand for 24 h at the same temperature for further phase separation. A stock solution with a concentration of 0.01 mol per liter in water, pre-saturated with n-octanol, was prepared for each compound. Duplicate test vessels containing a mixture of the stock solution and n-octanol (pre-saturated with water) were shaken on a vortex shaker for 5 min. Phase separation was achieved by centrifugation of the vessels for 3 min at 4000× g (25 ± 1 °C), and the concentration of the solute in the water phase (C water) was measured from their absorbance at 205 nm using a UV spectrophotometer. The partition coefficient was calculated using the following equation. Log Po/w = Log(C n-octanol/C water)
All the measurements were carried out at room temperature (25 ± 1 °C). In order to check the performance of the method, aniline was used as a reference substance.

[8] = tested on: Plasmodium falciparum FCR-3 (chloroquine-resistant); test: In vitro antiplasmodial screening, parasitemia by flow cytometry; assay type: cell-based; parameters: Plasmodium falciparum FCR-3 Growth Inhibition (%): concentration or dose not given beside the values; conditions: for Plasmodium falciparum FCR-3 Growth Inhibition (%): mean ± SD; for IC50: Plasmodium falciparum, read-out: Plasmodium falciparum FCR-3 IC50
Method: (§3) The antimalarial activity assay was performed using Plasmodium falciparum 3D7 (chloroquine-sensitive) and FCR-3 (chloroquine-resistant) reference strains, which were cultured in vitro following the method described by Trager et al. with some modifications.
(§4) The experiments were performed in 96-well culture plates, where the stock solutions of compounds 1–12 (1, 0.1, 0.01, and 0.001 µg/mL) were tested. A total of 100 µL of each product was distributed in triplicate on the culture plates, and 100 µL of a red blood cell suspension (4% hematocrit, final parasitemia of 1% ring stage) was added, resulting in a final volume of 200 µL. The test plates were incubated at 37 °C for 48 h, and parasitemia was determined by flow cytometry (BDFACScalibur). Erythrocytes were taken from each well culture plate, and 100 µL of ethidium bromide (10 µg/mL) was added and incubated for 30 min. A total of 100,000 cells per well culture plate were acquired and analyzed. The IC50 of the pure products was determined by a regression curve of the percentage inhibition of parasite activity as a function of the logarithmic dose. Chloroquine diphosphate was used as the reference drug.

[9] = tested on: Plasmodium falciparum 3D7 (chloroquine-sensitive); test: as above; assay type: cell-based; parameters: Plasmodium falciparum 3D7 Growth Inhibition (%): concentration or dose not given beside the values; conditions: for Plasmodium falciparum 3D7 Growth Inhibition (%): mean ± SD; for IC50: Plasmodium falciparum, read-out: Plasmodium falciparum 3D7 IC50
Method: as §3, §4

[10] = ATCC12453, broth dilution, triplicate, read-out: MIC P. mirabilis G+
[11] = ATCC25922, broth dilution, triplicate, read-out: MIC E. coli G−
[12] = ATCC29212, broth dilution, triplicate, read-out: MIC E. faecalis G+
[13] = ATCC700603, broth dilution, triplicate, read-out: MIC K. pneumonia G−
[14] = ATCC25923, broth dilution, triplicate, read-out: MIC S. aureus G+
[15] = FCR-3 chloroquine-resistant, 48 h
[16] = FCR3, FCR-3 chloroquine-resistant, 48 h
[17] = 3D7 chloroquine-sensitive, 48 h

SMILES	MIC [1, 10]	MIC [2, 11]	MIC [3, 12]	MIC [4, 13]	MIC ([5]; broth dilution, triplicate)	MIC [6, 14]	logP [7]	IC50 [8, 16]	IC50 [9, 17]	Plasmodium falciparum FCR-3 Growth Inhibition (%) [8, 15]	Plasmodium falciparum 3D7 Growth Inhibition (%) [9, 17]	further results
NC1=CC(=O)c2ccccc2C1=O [Compound 2-amino]												IC50 (P. falciparum 3D7): 5.14 µM
Cc1nnc(SCC2=C(C(=O)O)N3C(=O)[C@@H](NC(=O)Cn4cnnn4)[C@H]3SC2)s1 [CFZ, cefazolin, reference compound]	5.6 µg/mL (≈ 12.3 µM)	> 50 µg/mL	8.4 µg/mL (≈ 18.5 µM)	8.5 µg/mL (≈ 18.7 µM)	7.1 µg/mL (≈ 15.6 µM)	4.2 µg/mL (≈ 9.24 µM)						
CN(C1=C(Cl)C(=O)c2ccccc2C1=O)c1ccccc1 [Compound 12]	11.5 µg/mL (≈ 38.6 µM)	28.6 µg/mL (≈ 96.1 µM)	47.2 µg/mL (≈ 159 µM)	> 50 µg/mL	50 µg/mL (≈ 168 µM)	29 µg/mL (≈ 97.4 µM)	2.33 ± 0.02	> 1 µg/mL	0.8 µg/mL (≈ 2.69 µM)	25.0 ± 5.0%	62.0 ± 5.0%	
COc1ccc(OC)c(NC2=CC(=O)c3ccccc3C2=O)c1 [Compound 9]	29.9 µg/mL (≈ 96.7 µM)	> 50 µg/mL	38.2 µg/mL (≈ 123 µM)	> 50 µg/mL	43.8 µg/mL (≈ 142 µM)	> 50 µg/mL	1.6 ± 0.23	> 1 µg/mL	> 1 µg/mL	24.0 ± 2.0%	33.0 ± 1.0%	
COc1ccc(NC2=CC(=O)c3ccccc3C2=O)cc1 [Compound 7]							1.39 ± 0.15			57.0 ± 1.0%	49.0 ± 2.0%	IC50 ([8]; FCR3, 48 h): 0.88 µg/mL (≈ 3.15 µM); IC50 ([9]; 3D7, 48 h): > 1 µg/mL; MIC ([1]; ATCC12453, read-out: MIC P. mirabilis G+): 18.4 µg/mL (≈ 65.9 µM); MIC ([2]; ATCC25922, read-out: MIC E. coli G−): > 50 µg/mL; MIC ([3]; ATCC29212, read-out: MIC E. faecalis G+): 31.2 µg/mL (≈ 112 µM); MIC ([4]; ATCC700603, read-out: MIC K. pneumonia G−): 37.3 µg/mL (≈ 134 µM); MIC [5]: 29.9 µg/mL (≈ 107 µM); MIC ([6]; ATCC25923, read-out: MIC S. aureus G+, broth dilution, triplicate): 3.2 to 5.7 µg/mL (≈ 11.5 to 20.4 µM); MIC S. aureus G+ ([6]; triplicate): 5.7 µg/mL (≈ 20.4 µM)
COc1ccc(NC2=C(Cl)C(=O)c3ccccc3C2=O)cc1 [Compound 8]	52.6 µg/mL (≈ 168 µM)	> 50 µg/mL	40.1 µg/mL (≈ 128 µM)	49.1 µg/mL (≈ 156 µM)	49.9 µg/mL (≈ 159 µM)	21.9 µg/mL (≈ 69.8 µM)	1.81 ± 1.04	> 1 µg/mL	> 1 µg/mL	34.0 ± 2.0%	26.0 ± 2.0%	

Continued, in another order:

MIC [1, 10]	MIC [2, 11]	MIC [3, 12]	MIC [4, 13]	MIC ([5]; broth dilution, triplicate)	MIC [6, 14]	logP [7]	IC50 [8, 16]	IC50 [9, 17]	SMILES	Plasmodium falciparum FCR-3 Growth Inhibition (%) [8, 15]	Plasmodium falciparum 3D7 Growth Inhibition (%) [9, 17]	further results
44 µg/mL (≈ 167 µM)	> 50 µg/mL	30.2 µg/mL (≈ 115 µM)	> 50 µg/mL	> 50 µg/mL	3.2 to 5.7 µg/mL (≈ 12.2 to 21.6 µM)	2.31 ± 0.3	0.55 µg/mL (≈ 2.09 µM)	> 1 µg/mL	CN(C1=CC(=O)c2ccccc2C1=O)c1ccccc1 [Compound 11]	72.0 ± 2.0%	26.0 ± 8.0%	MIC S. aureus G+ ([6]; triplicate): 5.5 µg/mL (≈ 20.9 µM)
40.9 µg/mL (≈ 137 µM)	> 50 µg/mL	37.1 µg/mL (≈ 125 µM)	44.6 µg/mL (≈ 150 µM)	32.5 µg/mL (≈ 109 µM)	> 50 µg/mL	2.2 ± 0.13	0.86 µg/mL (≈ 2.89 µM)	> 1 µg/mL	Cc1ccccc1NC1=C(Cl)C(=O)c2ccccc2C1=O [Compound 4]	56.0 ± 1.0%	42.0 ± 2.0%	
